The record followed here is PubChem BioAssay AID743159 (Broad Institute, 2013).

Each structure is given as a SMILES string. “And” between values parts separate entries of the source, which are not always exact repeats. Equal values may be shown once. The source made the active and inactive calls.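 The calls were made as follows: active = fitted curve reaches a 40% rise in lysis activity at or below the top valid tested dose; inconclusive = flat curve holding a 30 to 70% rise, or poor fit; inactive = signal moving opposite to the expected rise, and the rest.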

The test system of one test is Cryptococcus neoformans lysis, adenylate kinase release luminescence, 4 h. Description: Cryptococcus neoformans cell lysis inducers, dose response, AK release luminescence, dry powder (AID 743159).
Conditions: not given
As to `Cc1ccc2c(c1)[nH]c(=S)n2CCOc1ccccc1`, the AC40 was 211 nM.

Turning to `Cc1ccccc1OCCn1c(=S)[nH]c2ccccc21`, the AC40 is 596 nM.

Take `Cc1ccc(OCCn2cnc3ccccc32)cc1`: the AC40 is 2860 nM.

Regarding `S=c1[nH]c2ccccc2n1CCOc1ccc(Cl)cc1`, the AC40 is 270 nM.

As to `Cc1ccc(OCCn2c(=S)[nH]c3ccccc32)cc1`, the AC40 was 703 nM.

Consider `COC(=O)C1=C(C)N(Cc2ccc(Cl)cc2)C(=S)NC1c1ccc(Br)cc1` (stereo not given), for which the AC40 is 454 nM.

As for `Fc1cccc2c1[nH]c(=S)n2CCOc1ccccc1`, the AC40 was 1500 nM.

Take `Cc1cccc(OCCn2c(=S)[nH]c3cc(C(F)(F)F)ccc32)c1`: the AC40 was 352 nM.

In the case of `Fc1ccccc1OCCn1c(=S)[nH]c2ccccc21`, the AC40 is 1770 nM.

Regarding `COC(=O)C1=C(C)N(Cc2ccc(F)cc2)C(=S)NC1c1cccc(F)c1` (stereo not given), the AC40 is 2300 nM.

For `CCOC(=O)c1c(-c2ccc(C(C)(C)C)cc2)csc1NC(=O)CN1CCN(CC)CC1`, the AC40 was 6310 nM.

Regarding `COC(=O)C1=C(C)N(Cc2ccc(Br)cc2)C(=S)NC1c1ccc(F)cc1` (stereo not given), the AC40 was 681 nM.

In the case of `CCOC(=O)c1c(-c2ccc(F)cc2)csc1NC(=O)CN1CCN(C)CC1`, the AC40 is > 15000 nM (inactive).

`CCOC(=O)c1c(-c2ccc(-c3ccccc3)cc2)csc1NC(=O)CNCCN(C)C`: the AC40 is 6640 nM.

As to `CCOC(=O)c1c(-c2ccc(C(C)(C)C)cc2)csc1NC(=O)CN1CCN(C)CC1`, the AC40 was 6330 nM.

As for `S=c1[nH]c2cccc(Cl)c2n1CCOc1ccccc1`, the AC40 is 851 nM.

`Cc1ccc(OCCn2c(C)nc3ccccc32)cc1`: the AC40 was 1480 nM.

For the molecule `Cc1ccc(C(C)C)c(OCCn2c(=S)[nH]c3ccccc32)c1`, the AC40 was 232 nM.

Regarding `c1ccc(OCCn2cnc3ccccc32)cc1`, the AC40 is > 15000 nM (inactive).

For `S=c1[nH]c2ccccc2n1CCOc1ccccc1`, the AC40 is 1630 nM.

As to `COC(=O)C1=C(C)N(Cc2ccccc2)C(=S)NC1c1ccc(Br)cc1` (stereo not given), the AC40 was 1810 nM.

For the molecule `Cc1ccc(OCCn2c(=S)[nH]c3ccccc32)c(C(C)C)c1`, the AC40 is 334 nM and 155 nM.

Take `CCOc1ccc(OCCn2c(=S)[nH]c3ccccc32)cc1`: the AC40 is 880 nM.

On to `COC(=O)C1=C(C)N(Cc2ccc(Br)cc2)C(=S)NC1c1ccc(OC)cc1` (stereo not given), for which the AC40 was 925 nM.

Tested on in the next test: not listed separately
The test is described as above. The following applies: Cryptococcus neoformans lysis, adenylate kinase release luminescence, 4 h; at 15 µM (top of the series).
As to `CCOC(=O)c1c(NC(=O)CNCCN(C)C)sc(C)c1-c1ccccc1`, the lysis activity increase is 16.9% (inactive).

Regarding `Cc1ccc(OCCn2c(SCCO)nc3ccccc32)c(C(C)C)c1`, the lysis activity increase is 18.7% (inactive).

As for `O=c1[nH]c2ccccc2n1CCOc1ccccc1`, the lysis activity increase is -3.24% (inactive) and 10.6% (inactive).

With `CCOC(=O)c1c(NC(=O)CN2CCN(C)CC2)sc(C)c1-c1ccc(C)cc1`, the lysis activity increase was -2.55% (inactive).

For `CCOC(=O)c1c(-c2ccc(F)cc2)csc1NC(=O)CN1CCN(CC)CC1`, the lysis activity increase was 20.2% (inactive).

For the molecule `CCOC(=O)c1c(-c2ccc(OC)cc2)csc1NC(=O)CN(C)CC(=O)N(C)C`, the lysis activity increase is -2.9% (inactive).
